From patent US10851112B2, “Anti-HCMV virus compound” (MEDSHINE DISCOVERY INC., priority 2016, dated 2020)

Key:
[1] = tested on: US3-6-EGFP-HCMV-AD169 viruses; assay: Fluorescence decay assay against human cytomegalovirus; assay type: cell-based, human cytomegalovirus (HCMV); details: Human betaherpesvirus 5, AD169, MRC5, 240 h
Protocol: Fluorescence Decay Assay Against Human Cytomegalovirus
The antiviral activity of the compound against human cytomegalovirus (HCMV) was evaluated by determining the half maximal effective concentration (EC50) of the compound. The HCMV used in this assay was inserted with enhanced green fluorescent protein (EGFP) by gene recombination, so the viral replication in cells could be reflected by the expression level of GFP. The inhibitory activity of the compound on HCMV GFP expression was evaluated by determining the fluorescence intensity in the wells of different concentrations of the compound using a high content cell analysis platform Acumen eX3.
Fluorescence Decay Assay Against HCMV
MRC5 cells were inoculated into a black 96-well cell culture plate at a density of 20,000 cells per well. The plate was incubated overnight in a 37° C., 5% CO2 incubator. US3-6-EGFP-HCMV-AD169 viruses were added to the cell culture well at a certain MOI (0.003-0.1) and the plate was incubated for 3 hours in a 37° C., 5% CO2 incubator. After adsorption of viruses, the medium containing viruses was aspirated and 200 μL of cell culture medium containing different concentrations of the compound (4-fold dilution, 6 test concentrations) was added. The final concentration of DMSO in the medium was 1%. Virus control wells (with DMSO added, but no compound was added) and inhibition control wells (with a high concentration of control compound added) were set. The cell plate was incubated for 10 days in a 37° C., 5% CO2 incubator and the liquid was renewed on the 4th day and 7th day. After 10 days of culture, the fluorescence intensity was determined using a high content cell analysis platform Acumen eX3 (TTP LabTech). The original data was used for calculating the antiviral activity of the compound.
The inhibition % was imported into GraphPad Prism software for data processing to give a corresponding dose-response curve for the compound and the EC50 of the test compound was obtained.

[2] = Plasma protein binding rate test, equilibrium dialysis, CD-1 mouse plasma; assay type: in vitro ADME; details: mouse plasma (M), equilibrium dialysis 37° C. 4 hours, read-out: plasma protein binding PPB bound (%) (converted)
Protocol: (§1) Plasma Protein Binding Rate Test of the Compound
(§2) The protein binding rate of the test compound in CD-1 mice, SD rats, and human plasma was evaluated by equilibrium dialysis. The test compound was diluted into the plasma of the above three species respectively to prepare a sample with a final concentration of 2 μM. The sample was added to a 96-well equilibrium dialysis device, and dialyzed using a phosphate buffer solution at 37° C. for 4 hours. Warfarin was used as a control compound in the experiment. The concentration of the test compound and warfarin in the plasma and the buffer was determined by LC-MS/MS.

[3] = Plasma protein binding rate test, equilibrium dialysis, SD rat plasma; assay type: in vitro ADME; details: rat plasma (R), equilibrium dialysis 37° C. 4 hours, read-out: plasma protein binding PPB bound (%) (converted)
Protocol: as §1, §2

[4] = Plasma protein binding rate test, equilibrium dialysis, human plasma; assay type: in vitro ADME; details: equilibrium dialysis 37° C. 4 hours, read-out: plasma protein binding PPB bound (%) (converted)
Protocol: as §1, §2

Compound | EC50 [1] | fraction unbound at 4 h, 2 μM [2] | fraction unbound at 4 h, 2 μM [3] | fraction unbound at 4 h, 2 μM [4]
COc1cccc(N2CCN(C3=Nc4ccsc4[C@H](CC(=O)O)N3c3cc(C(F)(F)F)ccc3OC)CC2)c1 (single isomer, unassigned) [WX-088] | 2 nM | 0.022 | 0.028 | 0.024
COc1cc(N2CCN(C3=Nc4ccsc4[C@H](CC(=O)O)N3c3cc(C(F)(F)F)ccc3OC)CC2)ccn1 (single isomer, unassigned) [WX-109] | 4 nM | 0.055 | 0.108 | 0.097
COc1cccc(N2CCN(C3=Nc4c(csc4F)[C@H](CC(=O)O)N3c3cc(C(F)(F)F)ccc3OC)C[C@H]2C)c1 (single isomer, unassigned) [WX-132] | 0.15 nM | 0.011 | 0.017 | 0.022
COc1ccnc(N2CCN(C3=Nc4ccsc4[C@H](CC(=O)O)N3c3cc(C(F)(F)F)ccc3OC)C[C@H]2C)c1 (single isomer, unassigned) [WX-139] | 3 nM | 0.014 | 0.041 | 0.06
COc1cc(N2CCN(C3=Nc4ccsc4[C@H](CC(=O)O)N3c3cc(C(F)(F)F)ccc3OC)C[C@H]2C)ncn1 (single isomer, unassigned) [WX-143] | 0.89 nM | 0.015 | 0.066 | 0.069
COc1ccnc(N2CCN(C3=Nc4c(csc4F)[C@H](CC(=O)O)N3c3cc(C(F)(F)F)ccc3OC)C[C@H]2C)c1 (single isomer, unassigned) [WX-145] | 2 nM | 0.001 | 0.014 | 0.023
COc1cc(N2CCN(C3=Nc4c(csc4F)[C@H](CC(=O)O)N3c3cc(C(F)(F)F)ccc3OC)C[C@H]2C)ccn1 (single isomer, unassigned) [WX-147] | 0.17 nM | 0.002 | 0.014 | 0.018
COc1cc(N2CCN(C3=Nc4c(csc4F)[C@H](CC(=O)O)N3c3cc(C(F)(F)F)ccc3OC)C[C@H]2C)ncn1 (single isomer, unassigned) [WX-149] | 0.67 nM | 0.002 | 0.017 | 0.024
COc1cc(N2CCN(C3=Nc4c(C)csc4[C@H](CC(=O)O)N3c3cc(C(F)(F)F)ccc3OC)C[C@H]2C)ccn1 (single isomer, unassigned) [WX-153] | 0.26 nM | 0.011 | 0.02 | 0.019
COc1cc(N2[C@H](C)CN(C3=Nc4ccsc4[C@H](CC(=O)O)N3c3cc(C(F)(F)F)ccc3OC)C[C@@H]2C)ccn1 (single isomer, unassigned) [WX-161] | 0.317 nM | 0.004 | 0.023 | 0.02
